Laboratory results as given in ChEMBL document CHEMBL1201862, “PubChem BioAssay data set” (2004).
Values joined by “and” are separate entries in the source; they are usually repeats but may differ in a detail not shown here. Equal entries are not always repeated.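 Each compound was tested at five concentrations against cells in 96-well plates for 48 hours. The concentration for 50% growth inhibition is given as GI50.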 Active and inactive are the calls of the source. Rule as the data show it: active = GI50 up to about 1.1 µM and inactive = higher.

Tests used:
Experiment in all cases: DTP human tumour cell line panel, 48 h
HCC 2998 = test system: HCC 2998
HOP-62 = test system: HOP-62
HCT-116 = test system: HCT-116
NCI-H23 = test system: NCI-H23
SNB-78 = test system: SNB-78
U-251 = test system: U-251
HCT-15 = test system: HCT-15
TK-10 = test system: TK-10
SNB-75 = test system: SNB-75
SNB-19 = test system: SNB-19
SN12C = test system: SN12C
K562 = test system: K562
RPMI-8226 = test system: RPMI-8226
OVCAR-5 = test system: OVCAR-5
CCRF-CEM = test system: CCRF-CEM
CAKI-1 = test system: CAKI-1
NCI-H460 = test system: NCI-H460
Hs-578T = test system: Hs-578T
MCF7 = test system: MCF7

SMILES: CC(=O)OC1C(=O)C(O)C(C)OC1O[C@@H]1C[C@@]2(C)[C@@H]3CC=C4[C@@H](C[C@H](O)C(=O)C4(C)C)[C@]3(C)C(=O)C[C@]2(C)[C@H]1[C@@](C)(O)C(=O)/C=C/C(C)(C)O (some centres not stated)
- GI50 (HCC 2998): 2.27 µM (inactive)
- GI50 (HOP-62): 2.96 µM (inactive)
- GI50 (HCT-116): 2.2 µM (inactive)
- GI50 (NCI-H23): 6 µM (inactive)
- GI50 (SNB-78): 0.916 µM (active)
- GI50 (U-251): 1.16 µM (inactive)
- GI50 (HCT-15): 1.08 µM
- GI50 (TK-10): 1.85 µM (inactive)
- GI50 (SNB-75): 0.71 µM (active)
- GI50 (SNB-19): 1.62 µM (inactive)
- GI50 (SN12C): 2.61 µM (inactive)
- GI50 (K562): 3.35 µM (inactive)
- GI50 (RPMI-8226): 0.44 µM (active)
- GI50 (OVCAR-5): 7.29 µM (inactive)
- GI50 (CCRF-CEM): 0.662 µM (active)
- GI50 (CAKI-1): 1.36 µM (inactive)
- GI50 (NCI-H460): 1.98 µM (inactive)

SMILES: C=C1C(=O)OC2/C=C(\C)C(O)/C=C\C(C)(O)CC(OC(=O)/C(C)=C/C)C12 (configuration not stated)
- GI50 (HCC 2998): > 100 µM (inactive)
- GI50 (HOP-62): > 100 µM (inactive)
- GI50 (HCT-116): 16.3 µM (inactive)
- GI50 (NCI-H23): 39.8 µM (inactive)
- GI50 (SNB-78): 34.2 µM (inactive)
- GI50 (U-251): > 67.8 µM (inactive)
- GI50 (HCT-15): 17.2 µM
- GI50 (TK-10): > 48.4 µM (inactive)
- GI50 (SNB-75): > 100 µM (inactive)
- GI50 (SNB-19): > 39.6 µM (inactive)
- GI50 (SN12C): 22 µM (inactive)
- GI50 (K562): 9.64 µM (inactive)
- GI50 (RPMI-8226): > 39.5 µM (inactive)
- GI50 (OVCAR-5): > 100 µM (inactive)
- GI50 (CCRF-CEM): > 32.5 µM (inactive)
- GI50 (CAKI-1): 23.6 µM (inactive)
- GI50 (NCI-H460): > 61 µM (inactive)

SMILES: Cn1cc2ccccc2c1-c1nc(F)nc(Oc2ccc3c(c2)CC[C@@H]2C3CC[C@@]3(C)C2C[C@H](O)[C@@H]3O)n1 (some centres not stated)
- GI50 (HCC 2998): 15.4 µM (inactive)
- GI50 (HOP-62): 4.45 µM (inactive)
- GI50 (HCT-116): 14.3 µM (inactive)
- GI50 (NCI-H23): 18.3 µM (inactive)
- GI50 (SNB-78): 19.6 µM (inactive)
- GI50 (U-251): 10.3 µM (inactive)
- GI50 (HCT-15): 12.2 µM
- GI50 (TK-10): 20.4 µM (inactive)
- GI50 (SNB-75): 20.5 µM (inactive)
- GI50 (SNB-19): 13.8 µM (inactive)
- GI50 (SN12C): 13.7 µM (inactive)
- GI50 (K562): 18.7 µM (inactive)
- GI50 (RPMI-8226): 16.7 µM (inactive)
- GI50 (OVCAR-5): 19.2 µM (inactive)
- GI50 (CCRF-CEM): 2.66 µM (inactive)
- GI50 (CAKI-1): 18.1 µM (inactive)
- GI50 (NCI-H460): 30.9 µM (inactive)

SMILES: O=C1c2ccc3c4ccccc4n(Cc4ccccc4)c3c2C(=O)N1c1ccccc1
- GI50 (HCC 2998): 18.3 µM (inactive)
- GI50 (HOP-62): > 36.9 µM (inactive)
- GI50 (HCT-116): 16.4 µM (inactive)
- GI50 (NCI-H23): 12.9 µM (inactive)
- GI50 (SNB-78): 27.7 µM (inactive)
- GI50 (U-251): 15.8 µM (inactive)
- GI50 (HCT-15): 10.8 µM
- GI50 (TK-10): 15.6 µM (inactive)
- GI50 (SNB-75): 13.8 µM (inactive)
- GI50 (SNB-19): 20 µM (inactive)
- GI50 (SN12C): 16.5 µM (inactive)
- GI50 (K562): 6.07 µM (inactive)
- GI50 (RPMI-8226): 9.02 µM (inactive)
- GI50 (OVCAR-5): 17.6 µM (inactive)
- GI50 (CCRF-CEM): 1.88 µM (inactive)
- GI50 (CAKI-1): 12.5 µM (inactive)
- GI50 (NCI-H460): 58.7 µM (inactive)

SMILES: COc1cc([C@@H]2OC(=O)C3C2C(=O)O[C@H]3c2ccc(O)c(OC)c2)ccc1O (some centres not stated)
- GI50 (HCC 2998): > 100 µM (inactive)
- GI50 (HOP-62): > 100 µM (inactive)
- GI50 (HCT-116): > 100 µM (inactive)
- GI50 (NCI-H23): > 100 µM (inactive)
- GI50 (SNB-78): > 100 µM (inactive)
- GI50 (U-251): > 100 µM (inactive)
- GI50 (HCT-15): > 100 µM
- GI50 (TK-10): > 100 µM (inactive)
- GI50 (SNB-75): > 100 µM (inactive)
- GI50 (SNB-19): > 100 µM (inactive)
- GI50 (SN12C): > 100 µM (inactive)
- GI50 (K562): > 100 µM (inactive)
- GI50 (RPMI-8226): > 100 µM (inactive)
- GI50 (OVCAR-5): > 100 µM (inactive)
- GI50 (CCRF-CEM): > 100 µM (inactive)
- GI50 (CAKI-1): > 100 µM (inactive)
- GI50 (NCI-H460): > 100 µM (inactive)

SMILES: O=C(N/N=C(/CCN1CCCC1)CC(c1ccccc1)c1c(O)c2ccccc2oc1=O)c1ccncc1 (configuration not stated)
- GI50 (HCC 2998): 0.171 µM (active)
- GI50 (HOP-62): > 100 µM (inactive)
- GI50 (HCT-116): > 100 µM (inactive)
- GI50 (NCI-H23): > 100 µM (inactive)
- GI50 (SNB-78): > 100 µM (inactive)
- GI50 (U-251): > 100 µM (inactive)
- GI50 (HCT-15): > 100 µM
- GI50 (TK-10): > 100 µM (inactive)
- GI50 (SNB-75): > 100 µM (inactive)
- GI50 (SNB-19): > 100 µM (inactive)
- GI50 (SN12C): > 100 µM (inactive)
- GI50 (K562): 87.1 µM (inactive)
- GI50 (RPMI-8226): 45.1 µM (inactive)
- GI50 (OVCAR-5): > 100 µM (inactive)
- GI50 (CCRF-CEM): 50.8 µM (inactive)
- GI50 (CAKI-1): > 100 µM (inactive)
- GI50 (NCI-H460): > 100 µM (inactive)

SMILES: O=C(Nc1ccc(C(F)(F)F)cc1[N+](=O)[O-])C(=O)C1NC(=S)NC1=O (configuration not stated)
- GI50 (HCC 2998): > 100 µM (inactive)
- GI50 (HOP-62): > 100 µM (inactive)
- GI50 (HCT-116): > 100 µM (inactive)
- GI50 (NCI-H23): > 100 µM (inactive)
- GI50 (SNB-78): > 100 µM (inactive)
- GI50 (U-251): > 100 µM (inactive)
- GI50 (HCT-15): > 100 µM
- GI50 (TK-10): > 100 µM (inactive)
- GI50 (SNB-75): 26.6 µM (inactive)
- GI50 (SNB-19): > 100 µM (inactive)
- GI50 (SN12C): 2.26 µM (inactive)
- GI50 (K562): > 100 µM (inactive)
- GI50 (RPMI-8226): > 100 µM (inactive)
- GI50 (OVCAR-5): > 100 µM (inactive)
- GI50 (CCRF-CEM): > 100 µM (inactive)
- GI50 (CAKI-1): 54.1 µM (inactive)
- GI50 (NCI-H460): > 100 µM (inactive)

SMILES: C[N+](C)(C)CC(=O)N/N=C(\C(=O)NC1=C(Cl)C(=O)c2ccccc2C1=O)C(C#N)c1csc(-c2ccc([N+](=O)[O-])cc2)n1 (configuration not stated)
- GI50 (HCC 2998): > 100 µM (inactive)
- GI50 (HOP-62): > 100 µM (inactive)
- GI50 (HCT-116): > 100 µM (inactive)
- GI50 (NCI-H23): > 100 µM (inactive)
- GI50 (SNB-78): > 100 µM (inactive)
- GI50 (U-251): > 100 µM (inactive)
- GI50 (HCT-15): > 100 µM
- GI50 (TK-10): > 100 µM (inactive)
- GI50 (SNB-75): > 100 µM (inactive)
- GI50 (SNB-19): > 100 µM (inactive)
- GI50 (SN12C): > 100 µM (inactive)
- GI50 (K562): > 100 µM (inactive)
- GI50 (RPMI-8226): > 100 µM (inactive)
- GI50 (OVCAR-5): > 100 µM (inactive)
- GI50 (CCRF-CEM): > 100 µM (inactive)
- GI50 (CAKI-1): > 100 µM (inactive)
- GI50 (NCI-H460): > 100 µM (inactive)

SMILES: C[C@H]1CCC/C=C/[C@@H]2C[C@H](O)C[C@H]2[C@H](O)/C=C/C(=O)O1 [BREFELDIN A]
- GI50 (Hs-578T): < 10 nM (active) and 10.1 nM (active)
- GI50 (HCT-116): 18.2 nM (active) and 23.3 nM (active)
- GI50 (MCF7): < 16.4 nM (active) and 26.3 nM (active)
- GI50 (NCI-H23): 12.5 nM (active) and 25.1 nM (active)
- GI50 (SNB-78): 0.00675 µM (active)
- GI50 (U-251): 68.1 nM (active) and 36.7 nM (active)
- GI50 (HCT-15): 0.0692 µM and 0.043 µM
- GI50 (TK-10): 36.7 nM (active) and 40.8 nM (active)
- GI50 (SNB-75): < 10 nM (active) and 8.97 nM (active)
- GI50 (K562): 36.6 nM (active) and 71.5 nM (active)
- GI50 (OVCAR-5): < 24 nM (active) and 44 nM (active)
